Among the data in patent publication US11214561B2, “Histone methyltransferase EZH2 inhibitor, preparation method and pharmaceutical use thereof” (ANCUREALL PHARMACEUTICAL (SHANGHAI) CO., LTD., priority 2017, dated 2022) are GI50 values, retold here.

Bounds are passed on as bounds.

One test has as its system Karpas-422 (EZH2 Y641N). Briefly: In vitro 50% growth inhibition (GI50), MTT/CCK8, Karpas-422 cells. It is filed as cell-based. As to conditions: Homo sapiens, KARPAS-422, 144 h; Drug treatment for 6 days. The text has this: (§1) In the present invention, a representative tumor cell line was selected to determine the cell growth inhibition activity of the present compound. Cell culture conditions and methods were in accordance with the requirements for each cell lines. The cells were subcultured in vitro for less than 3 generations each time, and as required, monoclone purification and identification of cell lines could be carried out.
(§2) The cell culture media used were RPMI1640 (Gibco) comprising 5-20% of fetal bovine serum (Gibco), 1% of double-antibiotic and 2 mM of glutamine.
(§3) Suspension culture cells were collected by centrifugation (1700 rpm, 3 minutes), and the supernatant was discarded and the cells were counted. According to each cell growth cycle, different concentrations of cells were prepared (1-10×10^4 cells per ml) and added to 96-well plates (Corning) with 100 μl per well, and then incubated overnight at 37° C., 5% CO2. The next day, the test compound was added to the cultured cells (2 wells in parallel). The final concentration of the solvent was less than 1/1,000. The cells were further cultured for 6 to 12 days and assayed by MTT.
(§4) The compound was stored at a concentration of 10 mM at −20° C. and diluted to two-fold or 10-fold series prior to use.
(§5) For the suspension culture cells, CCK8 was directly added to 10% of the final concentration. The cells were continually incubated for […].
(§6) The experiments were repeated 3 times and a statistical analysis of data was conducted.

A further test concerns SU-DHL-8 (EZH2 WT). Description: In vitro 50% growth inhibition (GI50), MTT/CCK8, SU-DHL-8 cells. It is filed as cell-based. As to conditions: Homo sapiens, SU-DHL-8, 144 h; Drug treatment for 6 days.
From the text: as §1, §2, §3, §4, §5, §6

The test system of another test is Pfeiffer (EZH2 A677G). Description: In vitro 50% growth inhibition (GI50), MTT/CCK8, Pfeiffer cells. It counts as cell-based, Human. Particulars: Homo sapiens, Pfeiffer, 240 h; Drug treatment for 10 days.
From the text: as §1, §2, §3, §4, §5, §6

With `C=CC(=O)N1CCC(N(CC)c2cc(-c3ccc(CN4CCCCC4)cc3)cc(C(=O)NCc3c(C)cc(C)[nH]c3=O)c2C)C1` (stereo not drawn) [Example 18, N-(4,6-dimethyl-2-oxo-1,2-dihydro-pyridin-3-ylmethyl)-5-[(1-acryloyl-pyrrolidin-3-yl)-ethyl-amino]-4′-(piperidin-1-ylmethyl)-4-methyl-biphenyl-3-carboxamide], the values for the 50% growth inhibitory concentration (GI50) in the test with Karpas-422 (EZH2 Y641N), in the test on SU-DHL-8 (EZH2 WT) and with Pfeiffer (EZH2 A677G) were 10 to 100 nM, over 1000 nM and 1 to 10 nM, respectively.

Turning to `C=CC(=O)N1CCC(N(CC)c2cc(-c3ccc(CN4CCOCC4)c(Cl)c3)cc(C(=O)NCc3c(C)cc(C)[nH]c3=O)c2C)CC1` [Example 71, N-(4,6-dimethyl-2-oxo-1,2-dihydro-pyridin-3-ylmethyl)-5-[(1-acryloyl-piperidin-4-yl)-ethyl-amino]-3′-chloro-4-methyl-4′-(morpholin-4-ylmethyl)-[1,1′-biphenyl]-3-carboxamide], the values for the GI50 with Karpas-422 (EZH2 Y641N), with SU-DHL-8 (EZH2 WT) and in the test on Pfeiffer (EZH2 A677G) were 10 to 100 nM, over 1000 nM and 1 to 10 nM, respectively.

With `C=CC(=O)N1CCC(N(CC)c2cc(-c3ccc(N4CCOCC4)cc3)cc(C(=O)NCc3c(C)cc(C)[nH]c3=O)c2C)C1` (stereo not drawn) [Example 24, N-(4,6-dimethyl-2-oxo-1,2-dihydro-pyridin-3-ylmethyl)-5-[(1-acryloyl-pyrrolidin-3-yl)-ethyl-amino]-4′-(morpholin-4-yl)-4-methyl-biphenyl-3-carboxamide], the 50% growth inhibitory concentration (GI50) in the test with Karpas-422 (EZH2 Y641N) is 100 to 1000 nM; with SU-DHL-8 (EZH2 WT), over 1000 nM; with Pfeiffer (EZH2 A677G), 1 to 10 nM.

As for `C=CC(=O)N1CCC(N(CC)c2cc(-c3ccc(CN4CCOCC4)c(Cl)c3)cc(C(=O)NCc3c(C)cc(C)[nH]c3=O)c2C)C1` (stereo not drawn) [Example 21, N-(4,6-dimethyl-2-oxo-1,2-dihydro-pyridin-3-ylmethyl)-5-[(1-acryloyl-pyrrolidin-3-yl)-ethyl-amino]-3′-chloro-4′-(morpholin-4-ylmethyl)-4-methyl-biphenyl-3-carboxamide], the GI50 is 100 to 1000 nM in the test with Karpas-422 (EZH2 Y641N), over 1000 nM in the test on SU-DHL-8 (EZH2 WT) and 1 to 10 nM with Pfeiffer (EZH2 A677G).

For `C=CC(=O)N1CCC(N(CC)c2cc(-c3ccc(CN4CCOCC4)c(F)c3)cc(C(=O)NCc3c(C)cc(C)[nH]c3=O)c2C)C1` (stereo not drawn) [Example 23, N-(4,6-dimethyl-2-oxo-1,2-dihydro-pyridin-3-ylmethyl)-5-[(1-acryloyl-pyrrolidin-3-yl)-ethyl-amino]-3′-fluoro-4′-(morpholin-4-ylmethyl)-4-methyl-biphenyl-3-carboxamide], the GI50 with Karpas-422 (EZH2 Y641N) is 10 to 100 nM; in the test with SU-DHL-8 (EZH2 WT), over 1000 nM; with Pfeiffer (EZH2 A677G) it was 1 to 10 nM.

For `C=CC(=O)N1CCC(N(CC)c2cc(-c3ccc(CN(C)C)cc3)cc(C(=O)NCc3c(C)cc(C)[nH]c3=O)c2C)C1` (stereo not drawn) [Example 19, N-(4,6-dimethyl-2-oxo-1,2-dihydro-pyridin-3-ylmethyl)-5-[(1-acryloyl-pyrrolidin-3-yl)-ethyl-amino]-4′-(dimethylaminomethyl)-4-methyl-biphenyl-3-carboxamide], the 50% growth inhibitory concentration (GI50) is 100 to 1000 nM in the test with Karpas-422 (EZH2 Y641N), over 1000 nM in the test with SU-DHL-8 (EZH2 WT) and 10 to 100 nM in the test on Pfeiffer (EZH2 A677G).

On to `C=CC(=O)N1CCC(N(CC)c2cc(Br)cc(C(=O)NCc3c(C)cc(C)[nH]c3=O)c2C)CC1` [Example 6, 3-[(1-acryloyl-piperidin-4-yl)-ethyl-amino]-5-bromo-N-(4,6-dimethyl-2-oxo-1,2-dihydro-pyridin-3-ylmethyl)-2-methyl-benzamide], for which the values for the GI50 in the test on Karpas-422 (EZH2 Y641N), in the test on SU-DHL-8 (EZH2 WT) and in the test with Pfeiffer (EZH2 A677G) were 10 to 100 nM, over 1000 nM and 1 to 10 nM, respectively.

In the case of `C=CC(=O)N1CCC(N(CC)c2cc(OC)cc(C(=O)NCc3c(C)cc(C)[nH]c3=O)c2C)C1` (stereo not drawn) [Example 16, 3-[(1-acryloyl-pyrrolidin-3-yl)-ethyl-amino]-5-methoxy-N-(4,6-dimethyl-2-oxo-1,2-dihydrogen-pyridin-3-ylmethyl)-2methyl-benzamide], the GI50 was 100 to 1000 nM in the test with Karpas-422 (EZH2 Y641N), over 1000 nM in the test on SU-DHL-8 (EZH2 WT) and 10 to 100 nM in the test on Pfeiffer (EZH2 A677G).

For orientation: GI50 means the concentration that inhibits growth by half. Read a low GI50 as greater sensitivity of the cells.
